In this assay the test system is contaminating wild-type microbial cells (obtained from a commercial plant). The assay is described as follows: laboratory scale model: antimicrobial treatment of pasteurized corn mash, change in pH after 12 hours. The assay is classed as cell-based. The procedure: A laboratory model has been developed to characterize the microbial activity of various components (in isolation and in combination). Briefly, cycloheximide and glucose are added to a pasteurized corn mash (step 010). At step 020, the pasteurized mash was supplemented with an antimicrobial composition and submitted to an acidic treatment. More specifically, at substep 021, an antimicrobial composition was added to the pasteurized mash. Then, at substep 022, contaminating wild-type microbial cells (obtained from a commercial plant) were added. Afterwards, at substep 023, the mash was submitted to an acidic treatment with sulfuric acid. The mash was held in such acidic conditions for 30 minutes at 33° C. (step 030). A base was then added to the acidic mash to increase the pH of the mixture (to a level suitable for the growth and metabolic activity of yeasts, step 040). The neutralized mash obtained after step 040 was maintained at 12 hours at 33° C. (step 050). Step 050 was used to allow, if any, the bacterial growth to measure the antimicrobial efficiency of the different treatments. At step 060, the pH and the presence of different metabolites (using HPLC) were determined.

Consider two molecules from US12441976B2, “Process for reducing the activity of microbial contamination in a yeast medium” (Lallemand Hungary Liquidity Management LLC, priority 2020, dated 2025).

With nisin, the “antimicrobial effectiveness, in words” value (100 ppm nisin added after the pH was raised to 5.5) was “more effective than adding nisin as a part of the antimicrobial blend”.

In the case of `O=CO` [formate], the “inhibition, in words” value (organic acid alone, 0.1% w/v, pH 3.2) was “greater inhibition than acetate or D/L lactate only”.
